Laboratory results published in patent US12350259B2, “Methods of treating migraine” (Allergan Pharmaceuticals International Limited, priority 2021, dated 2025).
Like-named read-outs stand apart in the source and are kept apart here. Marks after values point to notes of the source that are not given here.

Experiments:
[1] = Atogepant-itraconazole drug interaction study: atogepant plasma PK; type: in vivo, human; settings: for Tmax / AUC(0-inf) / AUC(0-t) / Cmax / half-life / Vd/F: both sexes, human, plasma, oral; for Vd/F: read-out: Vz/F
Description: An open-label, single-sequence drug-drug interaction study was carried out to evaluate the effect of CYP3A4 inhibition by oral itraconazole (200 mg per day) on the pharmacokinetics of a single oral dose of atogepant (60 mg) in healthy subjects.
This study was a single-center, single-sequence, open-label, 2-period PK drug-interaction study in 40 healthy male and female subjects aged 18 through 45 years.
Subjects who satisfied the inclusion and exclusion criteria were assigned to a single fixed-treatment sequence in which they received Treatment A followed by Treatment B; there was a 7-day washout period between treatments. • Treatment A: Single oral 60 mg dose of atogepant (tablet) under fasted conditions on Day 1 • Treatment B • Days 8-14: Itraconazole 200 mg (tablet) orally once daily under fed conditions. • Day 15: Itraconazole 200 mg coadministered with atogepant 60 mg (tablet) under fasted conditions. • Days 16 to 17: Itraconazole 200 mg (tablet) once daily under fed conditions.
Atogepant was administered in the fasted state in this study. Administration of itraconazole with food enhances its bioavailability. Accordingly, to maximize the CYP3A4 inhibition effect, itraconazole was administered with food on all the itraconazole treatment days except day 15. On day 15, both itraconazole and atogepant were administered under fasted state. Fasted state administration of itraconazole on Day 15 was unlikely to affect the CYP3A4 inhibition effect due to the attainment of steady state (of CYP3A4 activity) and long T1/2 of itraconazole (34 to 42 hours) following repeat dose administration.

[2] = Hepatic impairment study: safety and tolerability; type: in vivo, human; settings: single 60 mg dose, all hepatic function groups
Description: A multicenter, non-randomized, open-label, parallel-group, single-dose study was carried out to evaluate the PK, safety, and tolerability profiles of atogepant in participants with impaired hepatic function and matched healthy participants with normal hepatic function after a single 60-mg oral dose of atogepant. The primary outcome measures were PK parameters of atogepant derived from plasma concentrations. Safety measures were AEs, clinical laboratory determinations, vital sign parameters, electrocardiographic results, and physical examination findings.

[3] = Atogepant-esomeprazole drug interaction study: atogepant PK; type: in vivo, human; settings: for Tmax: human, plasma, oral
Description: A phase 1, open-label, 2-intervention, single-sequence, nonrandomized, crossover, drug-drug interaction study was conducted to evaluate the effects of multiple-dose esomeprazole magnesium 40 mg on pharmacokinetics (PK) and safety of co-administered single-dose atogepant 60 mg in healthy adults.
In this study, healthy adult participants received single-dose oral atogepant 60 mg on day 1, followed by once-daily esomeprazole 40 mg on days 7-13, co-administered with single-dose atogepant on day 12. Samples for atogepant PK analysis were collected on days 1 and 12. PK parameters calculated from atogepant plasma concentrations included peak plasma concentration (Cmax); time to Cmax (tmax); area under plasma concentration-time curve from time 0 to […] (AUC0-t) and from time 0 to infinity (AUC0-∞). PK parameters of atogepant alone vs. co-administered with esomeprazole were compared using a mixed-effects model. Statistical significance was achieved if 90% confidence intervals (CIs) for geometric least squares mean ratios (GMRs) of PK parameter values for atogepant co-administered with esomeprazole to atogepant administered alone were within 80%-125%.

[4] = Atogepant-topiramate interaction study, cohort 1: atogepant steady-state PK; type: in vivo, human; settings: for AUC / Cmax / Tmax: both sexes, human, plasma; for Tmax: read-out: Tmax,ss (median)
Description: The duration of the study was 25 days (±2 days), which included day −1 through the follow-up visit and excluded the screening period. The screening period was up to 21 days before day 1 and the intervention period was a total of 19 days, at which point the end of dosing visit was conducted. […] Clinical laboratory tests were performed at the follow-up visit, which was conducted on day 24 (7 [±2] days after the last dose of study medication. […] The primary endpoints were area under the plasma concentration-time curve during dosing interval at steady state (AUC0-tau,ss) and maximum plasma drug concentration at steady state (Cmax,ss) of atogepant and topiramate when coadministered and when administered alone. Additional PK parameters included time of maximum plasma drug concentration at steady state (Tmax,ss), average plasma drug concentration at steady state (Cavg,ss), and minimum plasma drug concentration at steady state (Cmin,ss) of topiramate and atogepant when coadministered and when administered alone.

[5] = Atogepant-topiramate interaction study: safety and tolerability; type: in vivo, human
[6] = Clinical pharmacokinetics of atogepant after oral administration (summary); type: in vivo, human
[7] = target: CYP2B6 (Homo sapiens, UniProt P20813); assay: In vitro CYP inhibition; type: in vitro ADME; settings: clinically relevant concentrations
[8] = target: CYP2C19 (Homo sapiens, UniProt P33261); assay: In vitro CYP inhibition; type: in vitro ADME; settings: clinically relevant concentrations
[9] = target: BCRP (Homo sapiens, UniProt Q9UNQ0); assay: Transporter inhibition; type: in vitro ADME; settings: clinically relevant concentrations
[10] = target: OCT1 (Homo sapiens, UniProt O15245); assay: Transporter inhibition; type: in vitro ADME
[11] = Treatment A: atogepant 60 mg single dose alone, fasted
[12] = Treatment B: atogepant 60 mg + steady state itraconazole 200 mg
[13] = atogepant + itraconazole vs atogepant alone
[14] = co-administration with itraconazole (strong CYP3A4 inhibitor), healthy subjects
[15] = atogepant 60 mg QD + topiramate 100 mg BID, day 17
[16] = atogepant 60 mg QD alone, day 7

Sequence of CYP2C19 (P33261 whole entry): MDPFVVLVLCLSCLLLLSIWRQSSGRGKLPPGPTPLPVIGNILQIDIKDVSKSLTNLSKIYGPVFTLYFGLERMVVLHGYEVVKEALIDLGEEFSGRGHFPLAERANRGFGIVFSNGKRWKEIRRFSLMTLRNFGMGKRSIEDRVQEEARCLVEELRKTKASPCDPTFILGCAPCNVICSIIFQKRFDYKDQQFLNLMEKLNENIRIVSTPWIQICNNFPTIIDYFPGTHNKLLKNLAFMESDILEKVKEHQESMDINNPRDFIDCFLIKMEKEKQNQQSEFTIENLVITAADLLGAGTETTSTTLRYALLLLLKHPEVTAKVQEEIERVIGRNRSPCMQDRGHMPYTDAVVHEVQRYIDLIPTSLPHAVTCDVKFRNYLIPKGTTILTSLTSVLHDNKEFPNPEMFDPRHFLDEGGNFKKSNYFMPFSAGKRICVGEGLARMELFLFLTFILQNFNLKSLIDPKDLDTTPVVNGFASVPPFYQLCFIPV
Sequence of BCRP (Q9UNQ0 whole entry): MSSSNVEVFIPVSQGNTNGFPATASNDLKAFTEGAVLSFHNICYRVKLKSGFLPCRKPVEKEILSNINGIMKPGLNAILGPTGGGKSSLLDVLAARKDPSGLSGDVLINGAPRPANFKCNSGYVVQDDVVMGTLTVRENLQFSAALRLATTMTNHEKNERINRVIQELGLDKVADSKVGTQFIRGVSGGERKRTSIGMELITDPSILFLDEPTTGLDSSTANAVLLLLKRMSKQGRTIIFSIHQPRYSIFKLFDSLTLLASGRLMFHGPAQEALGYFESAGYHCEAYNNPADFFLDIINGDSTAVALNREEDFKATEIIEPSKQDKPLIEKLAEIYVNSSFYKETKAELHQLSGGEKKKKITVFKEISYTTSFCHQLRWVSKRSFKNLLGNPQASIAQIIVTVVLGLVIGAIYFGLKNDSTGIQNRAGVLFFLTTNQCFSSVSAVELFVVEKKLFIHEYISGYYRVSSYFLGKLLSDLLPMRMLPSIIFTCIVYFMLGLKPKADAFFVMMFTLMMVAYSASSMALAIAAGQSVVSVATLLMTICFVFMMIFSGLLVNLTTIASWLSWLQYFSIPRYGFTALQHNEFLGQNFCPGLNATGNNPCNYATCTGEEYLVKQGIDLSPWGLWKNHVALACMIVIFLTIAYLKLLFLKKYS
Sequence of CYP2B6 (P20813 whole entry): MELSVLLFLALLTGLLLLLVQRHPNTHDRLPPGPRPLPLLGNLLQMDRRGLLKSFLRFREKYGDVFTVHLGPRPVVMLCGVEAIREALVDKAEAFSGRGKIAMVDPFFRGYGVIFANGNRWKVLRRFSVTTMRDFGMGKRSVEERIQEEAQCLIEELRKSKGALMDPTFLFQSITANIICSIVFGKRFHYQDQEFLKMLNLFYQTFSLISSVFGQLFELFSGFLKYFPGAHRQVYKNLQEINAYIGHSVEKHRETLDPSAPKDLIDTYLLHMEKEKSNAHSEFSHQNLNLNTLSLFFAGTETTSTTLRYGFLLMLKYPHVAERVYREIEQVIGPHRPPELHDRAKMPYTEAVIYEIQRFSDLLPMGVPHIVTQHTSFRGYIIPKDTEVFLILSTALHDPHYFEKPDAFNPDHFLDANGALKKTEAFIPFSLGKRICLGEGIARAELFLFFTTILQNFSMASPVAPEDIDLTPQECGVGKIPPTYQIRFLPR
Sequence of OCT1 (O15245 whole entry): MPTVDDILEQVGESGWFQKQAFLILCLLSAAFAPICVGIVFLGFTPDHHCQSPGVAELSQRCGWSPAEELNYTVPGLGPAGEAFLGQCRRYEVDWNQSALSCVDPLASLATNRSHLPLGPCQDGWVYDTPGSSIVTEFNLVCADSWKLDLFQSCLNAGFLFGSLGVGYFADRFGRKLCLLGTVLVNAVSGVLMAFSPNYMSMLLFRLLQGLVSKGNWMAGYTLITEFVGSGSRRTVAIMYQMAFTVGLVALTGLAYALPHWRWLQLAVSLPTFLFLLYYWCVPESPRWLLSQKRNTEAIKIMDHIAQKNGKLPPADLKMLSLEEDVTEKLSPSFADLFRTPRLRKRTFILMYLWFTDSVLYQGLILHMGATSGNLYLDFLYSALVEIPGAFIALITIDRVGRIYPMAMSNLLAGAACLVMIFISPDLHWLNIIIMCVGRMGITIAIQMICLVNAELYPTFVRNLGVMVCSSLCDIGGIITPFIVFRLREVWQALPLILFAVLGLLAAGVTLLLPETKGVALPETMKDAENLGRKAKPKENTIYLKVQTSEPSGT

Molecule C[C@@H]1[C@H](c2c(F)ccc(F)c2F)C[C@H](NC(=O)c2cnc3c(c2)C[C@@]2(C3)C(=O)Nc3ncccc32)C(=O)N1CC(F)(F)F [atogepant, (3′S)-N-[(3S,5S,6R)-6-methyl-2-oxo-1-(2,2,2-trifluoroethyl)-5-(2,3,6-trifluorophenyl)piperidin-3-yl]-2′-oxo-1′,2′,5,7-tetrahydrospiro[cyclopenta[b]pyridine-6,3′-pyrrolo[2,3-b]pyridine]-3-carboxamide] has a CL/F [1, 11] of 19.2 L/h, a λz [1, 11] of 0.0825 h⁻¹ and a CL/F [1, 12] of 3.46 L/h. For the same molecule, the λz [1, 12] was 0.0496 h⁻¹, the “AUC0-t GM Ratio Treatment B/Treatment A” value [1, 13] was 543.26% and the “AUC0-∞ GM Ratio Treatment B/Treatment A” value [1, 13] was 550.78%. For the same molecule, the “Cmax GM Ratio Treatment B/Treatment A” value [1, 13] was 215.11%, the Tmax ([1]; 60 mg, Treatment A: atogepant 60 mg single dose alone, fasted, read-out: Tmax (median)) was 2 h and the Tmax ([1]; atogepant + itraconazole vs atogepant alone, read-out: Tmax difference of medians) was 1 h. It also gave an AUC(0-inf) [1, 11] of 3470 ng·h/mL, an AUC(0-t) [1, 11] of 3440 ng·h/mL and a Cmax [1, 11] of 740 ng/mL. For the same molecule, the half-life [1, 11] was 672 min, the Vd/F [1, 11] was 292 L and the AUC(0-inf) [1, 12] was 18900 ng·h/mL. It also gave an AUC(0-t) [1, 12] of 18500 ng·h/mL, a Cmax [1, 12] of 1580 ng/mL and a half-life [1, 12] of 894 min. For the same molecule, the Tmax ([1]; Treatment B: atogepant 60 mg + steady state itraconazole 200 mg, read-out: Tmax (median)) was 3 h, the Vd/F [1, 12] was 73.4 L and the “increase in atogepant AUC” value [1, 14] was 5.5 fold. The “increase in atogepant Cmax” value [1, 14] was 2.15 fold, the tolerability [2] was “well tolerated” and the “reduced Cmax” value ([3]; coadministration with esomeprazole) was 23%. It also gave a Tmax ([3]; 60 mg, atogepant 60 mg alone, read-out: median plasma atogepant tmax) of 1.51 h, a Tmax ([3]; atogepant 60 mg coadministered with esomeprazole 40 mg, read-out: median plasma atogepant tmax) of 3 h and a Tmax ([3]; coadministration with esomeprazole vs alone, read-out: delay of median tmax) of 1.5 h. For the same molecule, the “Cavg,ss” value [4, 15] was 95.8 ng/mL, the “Cmin,ss” value [4, 15] was 6.3 ng/mL and the “Cavg,ss” value [4, 16] was 125.6 ng/mL. The “Cmin,ss” value [4, 16] was 10.2 ng/mL, the AUC ([4]; 60 mg, Atogepant Alone, read-out: AUC0-tau,ss Geometric LSM) was 2720 ng·h/mL and the Cmax ([4]; 60 mg, Atogepant Alone, read-out: Cmax,ss Geometric LSM) was 535 ng/mL. It also gave an AUC ([4]; 60 mg, atogepant 60 mg QD alone, day 7, read-out: AUC0-tau,ss) of 3020 ng·h/mL, a Cmax ([4]; 60 mg, atogepant 60 mg QD alone, day 7, read-out: Cmax,ss) of 626 ng/mL and an AUC ([4]; Atogepant and Topiramate, read-out: AUC0-tau,ss Geometric LSM) of 2030 ng·h/mL. The Cmax ([4]; Atogepant and Topiramate, read-out: Cmax,ss Geometric LSM) was 406 ng/mL, the AUC ([4]; atogepant 60 mg QD + topiramate 100 mg BID, day 17, read-out: AUC0-tau,ss) was 2300 ng·h/mL and the Cmax ([4]; atogepant 60 mg QD + topiramate 100 mg BID, day 17, read-out: Cmax,ss) was 491 ng/mL. For the same molecule, the Tmax [4, 15] was 2 h, the Tmax [4, 16] was 2 h and the “reduction of atogepant AUC0-tau,ss” value ([4]; coadministered with topiramate) was 25%. For the same molecule, the “reduction of atogepant Cmax,ss” value ([4]; coadministered with topiramate) was 24%, the “Deaths, %” value ([5]; cohort 1, atogepant + topiramate (n = 26)) was “(0) %” and the “Deaths, %” value ([5]; cohort 1, atogepant alone (n = 28)) was “(0) %”. The “TEAEs leading to discontinuation, %” value ([5]; human, in vivo) was “(17.9)^a %”, the “TESAEs, %” value ([5]; human, in vivo) was “(0) %” and the “Treatment-related TEAEs, %” value ([5]; human, in vivo) was “(39.3) %”. For the same molecule, the “Treatment-related TESAEs, %” value ([5]; human, in vivo) was “(0) %”, the constipation reported ([5]; human, in vivo) was 3 participants and the nausea reported ([5]; human, in vivo) was 6 participants. For the same molecule, the “TEAEs, %” value ([5]; human, in vivo, 7 days) was “(71.4) %”, the “mean apparent oral clearance (CL/F)” value ([6]; human, in vivo, po) was “approximately 19 L/hr” and the half-life ([6]; human, plasma, oral, read-out: elimination half-life (converted)) was about 660 min. For the same molecule, the Vd/F ([6]; human, plasma, after oral administration, read-out: mean apparent volume distribution (Vz/F)) was about 282 L, the accumulation ([6]; once daily dosing) was “no accumulation” and the dose proportionality ([6]; once daily dosing) was “dose-proportional pharmacokinetics up to 170 mg”. For the same molecule, the “inhibition of CYP2B6” value [7] was “not an inhibitor”, the “inhibition of CYP2C19” value [8] was “not an inhibitor” and the “inhibition of BCRP” value [9] was “not an inhibitor”. The “inhibition of OCT1” value [10] was “weak inhibitor”.
